The IC50 is the point on the concentration scale where inhibition reaches its midpoint.

Bounds are passed on as bounds.

Assay [1] concerns the target Factor XIa (Homo sapiens, UniProt P03951). In words: Factor XIa inhibition assay utilizing a fluorophore-quencher pair peptide substrate (FLINT). Particulars: 11-point, 3-fold serial dilution, top 100 nM; 30 min preincubation; 15 μM 5Fam-KLTRAETV-K5Tamra substrate; kinetic reads over 30 min; read-out: FXIa Inhibition IC50. Format: biochemical. The source says: Biological Example 1: Factor XIa Inhibition Assay Utilizing a Fluorophore-Quencher Pair Peptide Substrate
A fluorescence intensity (FLINT) based assay was used to monitor inhibition of Factor XIa. The peptide substrate, 5Fam-KLTRAETV-K5Tamra (purchased from New England Peptide) was chosen based on the FXI sequence. Conversion of zymogen FXI to its activated form, FXIa, occurs by proteolytic cleavage by […] at two sites, Arg146 and Arg180. The custom peptide used in this assay was based on the Arg146 cleavage site of FXI. The peptide substrate was designed with a fluorophore-quencher pair, where the fluorescence is quenched until FXIa cleaves the 8-mer peptide after the Arg residue.
The Factor XIa FLINT assay was used with the following 5Fam-KLTRAETV-K5Tamra assay buffer: 50 mM Tris, pH 7.5, 100 mM NaCl, 5 mM CaCl2, 0.1 mg/mL BSA, 0.03% CHAPS. Assay buffer was prepared by mixing all ingredients fresh. 5Fam-KLTRAETV-K5Tamra peptide substrate was first prepared at 10 mM in 100% DMSO, then diluted to 3 mM in 100% DMSO. Assay buffer was then added directly to the 3 mM stock of substrate to prepare the 30 μM 2× working concentration (15 μM final concentration). The 2× Factor XIa stock solution was prepared by diluting 6.562 μM stock in 1× assay buffer for a […].
Test compound(s) were run in an 11-point, 3-fold serial dilution with a final top compound concentration of 100 nM. Final DMSO in assay was 2%. FXIa was preincubated with compound for 30-minutes and then substrate was added to initiate the reaction. The assay was run with kinetic (KIN) reads at 5 min intervals over 30 minutes. […] More specifically, the assay was run as follows: • 100 nL of 0.01 mM test compound was dispensed into black 384-well non-binding Greiner BioOne 784900 plate for 0.1 μM final concentration, • 5 μL of 1× assay buffer was dispensed to column 24 (low control) and 5 μL 2× Factor XIa solution was dispensed to columns 1-23 (column 23 high control); • the plate was centrifuged with a “cover” plate at 500 rpm for 1 min • the plate was pre-incubated for 30 minutes at room temperature with plate covered; • 5 μL of 2×5Fam-KLTRAETV-K5Tamra peptide substrate was dispensed into the entire plate, columns 1-24; • the plate was centrifuged with a “cover” plate at 500 rpm for 1 min; • the plate was read monitoring fluorescence intensity on the BMG PHERAStar at room temperature, using fluorescence module 485 nm/520 nm.
(§1) Percent inhibition (IC50) curves were generated per compound tested, and data was analyzed using a 4-parameter logistic fit using GeneData Screener. The relative fluorescence unit (RFU) values were normalized to percent inhibition using the following equation: % inhibition=((HC−LC)−(compound−LC)/(HC−LC))*100
where LC—low control=mean signal of no Factor XIa or 100% inhibition of Factor XIa; HC—high control=mean signal of Factor XIa+5Fam-KLTRAETV-K5Tamra peptide substrate with DMSO only.
(§2) An 11-point dose response curve for the test compound(s) was generated using GENDATA to determine IC50 value based on the following equation: Y=Bottom+(Top−Bottom)/(1+10^((log IC50−X)*HillSlope))
where Y is the % inhibition in the presence of X inhibitor concentration, Top=high control=mean signal of Factor XIa+5Fam-KLTRAETV-K5Tamra peptide substrate with DMSO only; Bottom=low control—mean signal of no Factor XIa or 100% inhibition of Factor XIa; HillSlope—Hill coefficient; and IC50=concentration of compound with 50% inhibition in relation to top/high control.

Assay [2] deals with human plasma kallikrein (Homo sapiens, UniProt P03952). In words: Kallikrein inhibition assay utilizing a quenched AMC peptide substrate (FLINT). The format is biochemical. Particulars: 11-point, 3-fold serial dilution, top 1 μM; 30 min preincubation; 2 nM kallikrein; 50 μM Z-Gly-Pro-Arg-AMC; kinetic reads over 30 min. The method, then:
Biological Example 2: Kallikrein Inhibition Assay Utilizing a Quenched AMC Peptide Substrate
A fluorescence intensity (FLINT) based assay was used to monitor inhibition of human plasma kallikrein. The peptide substrate, Z-Gly-Pro-Arg-AMC (Purchased from Bachem; Catalog #I-1150) was chosen based on its relatively low KM for kallikrein which enables running the assay at lower substrate concentrations to control background fluorescence. The kinetic parameters for this substrate were determined by fitting titration data to the Michaelis-Menten equation yielding a KM=40 μM, kcat=0.76 s^−1, and kcat/KM=18932 M^−1s^−1.
The Kallikrein FLINT assay was used with the following Z-Gly-Pro-Arg-AMC assay buffer: 50 mM Tris, pH 7.5, 100 mM NaCl, 5 mM CaCl2, 0.1 mg/mL BSA, 0.03% CHAPS. Assay buffer was prepared by mixing all ingredients fresh. 2× Z-Gly-Pro-Arg-AMC peptide substrate was prepared by diluting 10 mM stock into 1× assay buffer for a 100 μM working concentration (50 μM final concentration). The 2× kallikrein stock solution was prepared by diluting 14.76 μM stock in 1× assay buffer for a 4 nM working stock solution (2 nM final concentration).
Test compound(s) were run in an 11-point, 3-fold serial dilution with a final top compound concentration of 1 μM. Final DMSO in assay was 2%. Plasma kallikrein was pre-incubated for 30-minute with compound and then 50 μM substrate was added to initiate the reaction. The assay was run with kinetic (KIN) reads at 5 min intervals over 30 minutes. The time course was linear using 2 nM kallikrein greater than 30 minutes. More specifically, the assay was run as follows: • 100 nL of 0.1 mM test compound was dispensed into black 384-well non-binding Greiner BioOne 784900 plate for 1 μM final concentration; • 5 μL of 1× assay buffer was dispensed to columns 24 (low control) and 5 μL 2× human kallikrein enzyme solution was dispensed to columns 1-23 (column 23 high control); • the plate was centrifuged with a “cover” plate at 500 rpm for 1 min • the plate was pre-incubated for 30 minutes at room temperature with plate covered; • 5 μL of 2× Z-Gly-Pro-Arg-AMC peptide substrate was dispensed into the entire plate, columns 1-24; • the plate was centrifuged with a “cover” plate at 500 rpm for 1 min; • the plate was read monitoring fluorescence intensity on the BMG PHERAStar at room temperature, using fluorescence module 340 nm/440 nm.
as §1
where LC—low control=mean signal of […] 100% inhibition of human kallikrein enzyme; HC—high control=mean signal of […]+Z-Gly-Pro-Arg-AMC peptide substrate with DMSO only.
as §2
where Y is the % inhibition in the presence of X inhibitor concentration, Top=high control=mean signal of human kallikrein enzyme+Z-Gly-Pro-Arg-AMC peptide substrate with DMSO only; Bottom=low control—mean signal of no human kallikrein enzyme or 100% inhibition of human kallikrein enzyme; HillSlope—Hill coefficient; and IC50=concentration of compound with 50% inhibition in relation to top/high control.

human plasma kallikrein, sequence (P03952 391-638 limits assumed): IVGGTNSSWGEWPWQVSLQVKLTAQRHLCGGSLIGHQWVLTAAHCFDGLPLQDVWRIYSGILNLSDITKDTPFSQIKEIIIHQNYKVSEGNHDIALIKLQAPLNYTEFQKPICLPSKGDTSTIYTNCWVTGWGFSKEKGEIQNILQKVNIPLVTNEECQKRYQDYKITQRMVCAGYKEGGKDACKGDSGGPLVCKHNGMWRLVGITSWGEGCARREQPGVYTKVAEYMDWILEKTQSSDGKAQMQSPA
human plasma kallikrein, sequence (P03952 20-390 partner limits assumed): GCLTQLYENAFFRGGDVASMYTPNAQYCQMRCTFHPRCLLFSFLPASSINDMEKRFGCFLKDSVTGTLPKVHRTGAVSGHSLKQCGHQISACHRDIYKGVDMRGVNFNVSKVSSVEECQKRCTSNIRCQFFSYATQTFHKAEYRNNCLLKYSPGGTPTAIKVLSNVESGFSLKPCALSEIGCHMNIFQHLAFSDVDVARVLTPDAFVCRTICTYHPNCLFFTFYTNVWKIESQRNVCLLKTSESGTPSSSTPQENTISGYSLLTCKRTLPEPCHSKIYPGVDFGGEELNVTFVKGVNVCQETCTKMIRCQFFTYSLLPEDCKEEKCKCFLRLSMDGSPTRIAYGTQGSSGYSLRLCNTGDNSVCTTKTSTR
Factor XIa, sequence (P03951 388-625 limits assumed): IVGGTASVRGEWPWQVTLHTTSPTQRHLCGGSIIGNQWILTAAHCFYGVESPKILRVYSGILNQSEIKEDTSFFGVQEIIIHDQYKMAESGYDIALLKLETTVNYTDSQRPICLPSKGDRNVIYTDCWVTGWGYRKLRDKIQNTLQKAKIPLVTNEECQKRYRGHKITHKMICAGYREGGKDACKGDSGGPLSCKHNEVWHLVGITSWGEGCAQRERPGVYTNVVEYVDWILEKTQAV
Factor XIa, sequence (P03951 19-387 partner limits assumed): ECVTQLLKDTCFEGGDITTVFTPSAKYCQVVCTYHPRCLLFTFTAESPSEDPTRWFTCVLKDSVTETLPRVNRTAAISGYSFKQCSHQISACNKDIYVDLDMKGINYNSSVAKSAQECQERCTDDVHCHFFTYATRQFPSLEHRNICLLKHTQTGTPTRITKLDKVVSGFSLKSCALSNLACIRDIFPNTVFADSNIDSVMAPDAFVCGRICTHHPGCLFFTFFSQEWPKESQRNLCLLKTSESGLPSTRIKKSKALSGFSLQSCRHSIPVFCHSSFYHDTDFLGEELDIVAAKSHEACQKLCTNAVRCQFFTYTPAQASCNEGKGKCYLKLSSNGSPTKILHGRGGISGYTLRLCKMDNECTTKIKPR

For `CO[C@H]1C[C@@H](C(=O)Nc2ccc3ncccc3c2)N2C(=O)C=C(c3c(-n4cnnn4)ccc(Cl)c3F)CC12` (mixture of isomers) [ID No. 29, (1S,3S)-7-[3-Chloro-2-fluoro-6-(tetrazol-1-yl)phenyl]-1-methoxy-5-oxo-N-(6-quinolyl)-2,3,8,8a-tetrahydro-1H-indolizine-3-carboxamide], the IC50 in assay [1] was 180 nM; in assay [2] it was 611 nM.
The matching figures for `O=C(Nc1ccc2c(c1)CN(O)C2=O)[C@@H]1CCC2CC(c3c(-n4cnnn4)ccc(Cl)c3F)=CC(=O)N21` (mixture of isomers) [ID No. 30, (3S)-7-(3-Chloro-2-fluoro-6-(1H-tetrazol-1-yl)phenyl)-N-(2-hydroxy-1-oxoisoindolin-5-yl)-5-oxo-1,2,3,5,8,8a-hexahydroindolizine-3-carboxamide]: greater than 95 nM and 128 nM.
For the molecule `CN(O)C(=O)c1cc2cc(NC(=O)[C@@H]3CCC4CC(c5c(-n6cnnn6)ccc(Cl)c5F)=CC(=O)N43)ccc2[nH]1` (mixture of isomers) [ID No. 31, 5-((3S)-7-(3-Chloro-2-fluoro-6-(1H-tetrazol-1-yl)phenyl)-5-oxo-1,2,3,5,8,8a-hexahydroindolizine-3-carboxamido)-N-hydroxy-N-methyl-1H-indole-2-carboxamide], the IC50 in assay [1] stood at 4.8 nM; in assay [2], 23.7 nM.
As for `O=C(O)/C=C/c1ccc(NC(=O)[C@@H]2CCC3CC(c4c(-n5cnnn5)ccc(Cl)c4F)=CC(=O)N32)cc1` (mixture of isomers) [ID No. 32, (E)-3-(4-((3S)-7-(3-Chloro-2-fluoro-6-(1H-tetrazol-1-yl)phenyl)-5-oxo-1,2,3,5,8,8a-hexahydroindolizine-3-carboxamido)phenyl)acrylic acid], the IC50 in assay [1] amounted to 1.6 nM; in assay [2], 14.4 nM.
Consider `NC(=O)c1c(F)cc(NC(=O)[C@@H]2CCC3CC(c4c(-n5cnnn5)ccc(Cl)c4F)=CC(=O)N32)cc1F` (mixture of isomers) [ID No. 33, (3S)—N-(4-Carbamoyl-3,5-difluorophenyl)-7-(3-chloro-2-fluoro-6-(1H-tetrazol-1-yl)phenyl)-5-oxo-1,2,3,5,8,8a-hexahydroindolizine-3-carboxamide], for which the IC50 in assay [1] amounted to 24 nM; in assay [2], 204 nM.
Taken in the same sequence, the figures for `CN(O)C(=O)c1ccc(NC(=O)[C@@H]2CCC3CC(c4c(-n5cnnn5)ccc(Cl)c4F)=CC(=O)N32)cc1` (mixture of isomers) [ID No. 34, (3S)-7-(3-Chloro-2-fluoro-6-(1H-tetrazol-1-yl)phenyl)-N-(4-(hydroxy(methyl)carbamoyl)phenyl)-5-oxo-1,2,3,5,8,8a-hexahydroindolizine-3-carboxamide] were 36.3 nM and 279 nM.
With `O=C(O)c1c(F)cc(NC(=O)[C@@H]2CCC3CC(c4c(-n5cnnn5)ccc(Cl)c4F)=CC(=O)N32)cc1F` (mixture of isomers) [ID No. 37, 4-[[(3S)-7-[3-Chloro-2-fluoro-6-(tetrazol-1-yl)phenyl]-5-oxo-2,3,8,8a-tetrahydro-1H-indolizine-3-carbonyl]amino]-2,6-difluoro-benzoic acid], the IC50 was 5.8 nM in assay [1] and 282 nM in assay [2].
Taken in the same sequence, the figures for `O=C(Nc1ccc(-c2nc(=O)o[nH]2)cc1)[C@@H]1CCC2CC(c3c(OC(F)F)ccc(Cl)c3F)=CC(=O)N21` (mixture of isomers) [ID No. 38, (3S)-7-(3-Chloro-6-(difluoromethoxy)-2-fluorophenyl)-5-oxo-N-(4-(5-oxo-2,5-dihydro-1,2,4-oxadiazol-3-yl)phenyl)-1,2,3,5,8,8a-hexahydroindolizine-3-carboxamide] were 40.2 nM and 421 nM.
The matching figures for `NC(=O)c1ccc(NC(=O)[C@@H]2CCC3CC(c4c(-n5cnnn5)ccc(Cl)c4F)=CC(=O)N32)cc1F` (mixture of isomers) [ID No. 39, (3S)—N-(4-Carbamoyl-3-fluorophenyl)-7-(3-chloro-2-fluoro-6-(1H-tetrazol-1-yl)phenyl)-5-oxo-1,2,3,5,8,8a-hexahydroindolizine-3-carboxamide]: 7.5 nM and 53 nM.
The matching figures for `NC(=O)c1ccc(NC(=O)[C@@H]2CCC3CC(c4c(-n5cnnn5)ccc(Cl)c4F)=CC(=O)N32)cc1` (mixture of isomers) [ID No. 41, (3S)—N-(4-Carbamoylphenyl)-7-(3-chloro-2-fluoro-6-(1H-tetrazol-1-yl)phenyl)-5-oxo-1,2,3,5,8,8a-hexahydroindolizine-3-carboxamide]: 7.4 nM and 79.7 nM.
Turning to `O=C(Nc1ccc(-c2nc(=O)o[nH]2)c(F)c1)[C@@H]1CCC2CC(c3c(-n4cnnn4)ccc(Cl)c3F)=CC(=O)N21` (mixture of isomers) [ID No. 42, (3S)-7-[3-Chloro-2-fluoro-6-(tetrazol-1-yl)phenyl]-N-[3-fluoro-4-(5-oxo-2H-1,2,4-oxadiazol-3-yl)phenyl]-5-oxo-2,3,8,8a-tetrahydro-1H-indolizine-3-carboxamide], the IC50 in assay [1] was determined as 0.3 nM; in assay [2], 10 nM.
As to `CO[C@@H]1C[C@@H](C(=O)Nc2ccc3n[nH]cc3c2)N2C(=O)C=C(c3c(-n4cnnn4)ccc(Cl)c3F)CC12` (mixture of isomers) [ID No. 43, (1R,3S)-7-[3-Chloro-2-fluoro-6-(tetrazol-1-yl)phenyl]-N-(2H-indazol-5-yl)-1-methoxy-5-oxo-2,3,8,8a-tetrahydro-1H-indolizine-3-carboxamide], the IC50 in assay [1] came out at 11 nM; in assay [2], 31.3 nM.

The values above are taken from patent publication US12286429B2, “5-oxo-1,2,3,5,8,8a-hexahydroindolizine-3-carboxamide derivatives useful as a factor XIa inhibitors” (Janssen Pharmaceutica NV, priority 2021, dated 2025).
